Test results as given in patent US11076594B2, “Pyrazolone compound or salt thereof, preparation method therefor, herbicide composition and use thereof” (QINGDAO KINGAGROOT CHEMICAL COMPOUNDS CO., LTD., priority 2015, dated 2021).

How the values were obtained:
Format in all cases: in vivo
Conditions in all cases: post-emergence spray at 4-5 leaf stage, 250 g/ha active ingredient with 450 kg/ha water, rated after 3 weeks in greenhouse
corn = experiment: post-emergence stage experiment, crop (Table 1)
Summary of the method: (§1)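 Read-out is growth control rate based on fresh weight, determined 3 weeks after treatment. Plants raised from seed in potted soil (0.5-2 cm cover) in greenhouse were sprayed 2-3 weeks post-sowing at 4-5 leaves with acetone/Tween 80 aqueous compound solutions.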

wheat = experiment: post-emergence stage experiment, crop (Table 1)
Summary of the method: as §1

crab grass = experiment: weed control effect in post-emergence stage (Table 1); parameters: key: Level 10: completely dead; Level 9: above 95% growth control rate; Level 8: above 90% growth control rate; Level 7: above 80% growth control rate; Level 6: above 70% growth control rate; Level 5: above 60% growth control rate; Level 4: above 50% growth control rate; Level 3: above 20% growth control rate; Level 2: 5%-20% growth control rate; Level 1: below 5% growth control rate
Summary of the method: as §1

Indian mallow = experiment: as above; parameters: key: Level 10: completely dead; Level 9: above 95% growth control rate; Level 8: above 90% growth control rate; Level 7: above 80% growth control rate; Level 6: above 70% growth control rate; Level 5: above 60% growth control rate; Level 4: above 50% growth control rate; Level 3: above 20% growth control rate; Level 2: 5%-20% growth control rate; Level 1: below 5% growth control rate
Summary of the method: as §1

rorippa indica = experiment: as above; parameters: key: Level 10: completely dead; Level 9: above 95% growth control rate; Level 8: above 90% growth control rate; Level 7: above 80% growth control rate; Level 6: above 70% growth control rate; Level 5: above 60% growth control rate; Level 4: above 50% growth control rate; Level 3: above 20% growth control rate; Level 2: 5%-20% growth control rate; Level 1: below 5% growth control rate
Summary of the method: as §1

bidens bipinnata = experiment: as above; parameters: key: Level 10: completely dead; Level 9: above 95% growth control rate; Level 8: above 90% growth control rate; Level 7: above 80% growth control rate; Level 6: above 70% growth control rate; Level 5: above 60% growth control rate; Level 4: above 50% growth control rate; Level 3: above 20% growth control rate; Level 2: 5%-20% growth control rate; Level 1: below 5% growth control rate
Summary of the method: as §1

echinochloa = experiment: as above; parameters: key: Level 10: completely dead; Level 9: above 95% growth control rate; Level 8: above 90% growth control rate; Level 7: above 80% growth control rate; Level 6: above 70% growth control rate; Level 5: above 60% growth control rate; Level 4: above 50% growth control rate; Level 3: above 20% growth control rate; Level 2: 5%-20% growth control rate; Level 1: below 5% growth control rate
Summary of the method: as §1

foxtail = experiment: as above; parameters: key: Level 10: completely dead; Level 9: above 95% growth control rate; Level 8: above 90% growth control rate; Level 7: above 80% growth control rate; Level 6: above 70% growth control rate; Level 5: above 60% growth control rate; Level 4: above 50% growth control rate; Level 3: above 20% growth control rate; Level 2: 5%-20% growth control rate; Level 1: below 5% growth control rate
Summary of the method: as §1

rice = experiment: post-emergence stage experiment, crop (Table 1); parameters: key: Level 10: completely dead; Level 9: above 95% growth control rate; Level 8: above 90% growth control rate; Level 7: above 80% growth control rate; Level 6: above 70% growth control rate; Level 5: above 60% growth control rate; Level 4: above 50% growth control rate; Level 3: above 20% growth control rate; Level 2: 5%-20% growth control rate; Level 1: below 5% growth control rate
Summary of the method: as §1

| Structure (SMILES) | effect on crop, Corn (level) (corn) | effect on crop, Wheat (level) (wheat) | weed control effect, Crab grass (level) (crab grass) | weed control effect, Indian mallow (level) (Indian mallow) | weed control effect, Rorippa indica (level) (rorippa indica) | weed control effect, Bidens bipinnata (level) (bidens bipinnata) | weed control effect, Echinochloa (level) (echinochloa) | weed control effect, Green foxtail (level) (foxtail) | effect on crop, Rice (level) (rice) |
| --- | --- | --- | --- | --- | --- | --- | --- | --- | --- |
| CCn1ncc(C(=O)c2ccc(C(F)(F)F)c(N3CCCC3=O)c2Cl)c1OC(=O)c1cn(C)nc1C [Compound 097] | 1 (Level 1: below 5% growth control rate) | 1 (Level 1: below 5% growth control rate) | 3 (Level 3: above 20% growth control rate) | 10 | 10 | 10 | 10 | 10 | 7 (Level 7: above 80% growth control rate) |
| CCn1nc(C)c(C(=O)c2ccc(C(F)(F)F)c(N3CCCC3=O)c2Cl)c1OC(=O)c1cn(C)nc1C [Compound 099] | 4 (Level 4: above 50% growth control rate) | 4 (Level 4: above 50% growth control rate) | 10 | 3 (Level 3: above 20% growth control rate) | 10 | 10 | 10 | 10 | 10 |
| CCc1nn(C)c(O)c1C(=O)c1ccc(C(F)(F)F)c(N2CCCC2=O)c1Cl [Compound 100] | 2 (Level 2: 5%-20% growth control rate) | 2 (Level 2: 5%-20% growth control rate) | 3 (Level 3: above 20% growth control rate) | 9 (Level 9: above 95% growth control rate) | 10 | 9 (Level 9: above 95% growth control rate) | 10 | 10 | 10 |
| CCc1nn(C)c(OC(=O)c2cn(C)nc2C)c1C(=O)c1ccc(C(F)(F)F)c(N2CCCC2=O)c1Cl [Compound 101] | 2 (Level 2: 5%-20% growth control rate) | 3 (Level 3: above 20% growth control rate) | 4 (Level 4: above 50% growth control rate) | 10 | 10 | 9 (Level 9: above 95% growth control rate) | 10 | 10 | 10 |
| CCn1nc(C2CC2)c(C(=O)c2ccc(C(F)(F)F)c(N3CCCC3=O)c2Cl)c1O [Compound 104] | 4 (Level 4: above 50% growth control rate) | 5 (Level 5: above 60% growth control rate) | 9 (Level 9: above 95% growth control rate) | 10 | 10 | 7 (Level 7: above 80% growth control rate) | 10 | 10 | 10 |
| CCn1nc(C2CC2)c(C(=O)c2ccc(C(F)(F)F)c(N3CCCC3=O)c2Cl)c1OC(=O)c1cn(C)nc1C [Compound 105] | 5 (Level 5: above 60% growth control rate) | 5 (Level 5: above 60% growth control rate) | 10 | 9 (Level 9: above 95% growth control rate) | 10 | 10 | 10 | 10 | 10 |
| CCn1ncc(C(=O)c2ccc(C(F)(F)F)c(N3CCCCC3=O)c2Cl)c1O [Compound 106] | 3 (Level 3: above 20% growth control rate) | 3 (Level 3: above 20% growth control rate) | 6 (Level 6: above 70% growth control rate) | 7 (Level 7: above 80% growth control rate) | 5 (Level 5: above 60% growth control rate) | 6 (Level 6: above 70% growth control rate) | 10 | 3 (Level 3: above 20% growth control rate) | 9 (Level 9: above 95% growth control rate) |
| CCn1ncc(C(=O)c2ccc(C(F)(F)F)c(N3CCCCC3=O)c2Cl)c1OC(=O)c1cn(C)nc1C [Compound 107] | 5 (Level 5: above 60% growth control rate) | 5 (Level 5: above 60% growth control rate) | 8 (Level 8: above 90% growth control rate) | 10 | 6 (Level 6: above 70% growth control rate) | 9 (Level 9: above 95% growth control rate) | 10 | 10 | 8 (Level 8: above 90% growth control rate) |
| CCc1nn(C)c(O)c1C(=O)c1ccc(C(F)(F)F)c(N2CCCCC2=O)c1Cl [Compound 110] | 0 | 2 (Level 2: 5%-20% growth control rate) | 2 (Level 2: 5%-20% growth control rate) | 9 (Level 9: above 95% growth control rate) | 10 | 5 (Level 5: above 60% growth control rate) | 9 (Level 9: above 95% growth control rate) | 10 | 10 |
| CCc1nn(CC)c(O)c1C(=O)c1ccc(C(F)(F)F)c(N2CCCCC2=O)c1Cl [Compound 112] | 3 (Level 3: above 20% growth control rate) | 3 (Level 3: above 20% growth control rate) | 6 (Level 6: above 70% growth control rate) | 5 (Level 5: above 60% growth control rate) | 2 (Level 2: 5%-20% growth control rate) | 1 (Level 1: below 5% growth control rate) | 10 | 5 (Level 5: above 60% growth control rate) | 7 (Level 7: above 80% growth control rate) |
| CCn1ncc(C(=O)c2ccc(C(F)(F)F)c(N3CCCCCC3=O)c2Cl)c1OC(=O)c1cn(C)nc1C [Compound 117] | 0 | 0 | 3 (Level 3: above 20% growth control rate) | 9 (Level 9: above 95% growth control rate) | 5 (Level 5: above 60% growth control rate) | 10 | 10 | 10 | 9 (Level 9: above 95% growth control rate) |
| CCn1nc(C)c(C(=O)c2ccc(C(F)(F)F)c(N3CCCCCC3=O)c2Cl)c1O [Compound 118] | 2 (Level 2: 5%-20% growth control rate) | 1 (Level 1: below 5% growth control rate) | 1 (Level 1: below 5% growth control rate) | 0 | 5 (Level 5: above 60% growth control rate) | 1 (Level 1: below 5% growth control rate) | 9 (Level 9: above 95% growth control rate) | 10 | 1 (Level 1: below 5% growth control rate) |
